Data as given in patent US5141929A, “Lipophilic ethers and/or esters of D-desosamine and their compositions as anti-bacteria and anti-fungus agents” (Societe Anonyme dite: L'Oreal, priority 1988, dated 1992).
Converted amounts (≈) assume the structure as drawn. Like-named read-outs stand apart in the source and are kept apart here.

Key:
P37 E⊕ (sensitive) = test: MIC by dilution method, erythromycin-sensitive P. acnes strain P37 E⊕; assay type: cell-based, propionibacterium acnes; details: for MIC: Cutibacterium acnes
Description: (§1) The activity of the esters and/or ethers of D-desosamine has been studied by the dilution method to determine the minimum inhibiting concentration (MIC) This method is described and employed by G.A. Denys et al, Antimicrobial Agents and Chemotherapy (1983) 23, 335-337 and J.J. Leyden et al, J. Am. Acad. Dermatol. (1983) 8 (1) 41-5, by using as the procionibacterium acnes strain, strain P37 furnished by Cunliffe and Holland.
(§2) On the other hand, after 8 successive sub-cultures in the same medium (RCM* 19/20, DMSO […] by volume) with the view of obtaining a progressive stabilization of this strain in this medium, a progressive resistance to erythromycin was manifested in the following form:
(§3) after spreading a standardized inoculum (DO=1.8 at 450 nm) on a gelose medium (RCM+furazolidone), in a Petri dish, a 9 mm diameter disc is deposited at its center. On the disc, 50 μg of erythromycin (in solution in DMSO) are deposited.
(§4) After 6 days at 36° C. in an anerobic medium (GAS-PAK, B.B.L. system) an inhibition zone of the growth of the strain is clearly visible (total diameter=42 mm), the majority of the colonies being situated at the periphery of the inhibition zone.
(§5) The two types of colonies are then retained by stripping of the gelose medium (sterilized platinum loop):
(§6) (2) at 1 cm beyond the periphery of the inhibition zone, there are stripped off strains called P37 E⊕.
(§7) After isolation and culturing, the P37 E⊕ and P37 E⊖ strains effectively show very different sensitivities to erythromycin as illustrated by the following respective MIC values.
(§8) The minimum inhibiting concentration (MIC), expressed in μg/ml of the esters and/or ethers of D-desosamine tested vis-a-vis strains of propionibacterium Acnes P37, P37E⊕ and P37E⊖ and staphilococcus epidermidis ATCC 12228, is reported in the following Table I.

[1] = tested on: propionibacterium Acnes P37; test: MIC by dilution method, Propionibacterium acnes strain P37; assay type: cell-based; details: for MIC: Cutibacterium acnes
Description: as §1
This P37 strain has been the object of studies described in the following publications:
as §8

P37 E⊖ (resistant) = test: MIC by dilution method, erythromycin-resistant P. acnes strain P37 E⊖; assay type: cell-based, propionibacterium acnes; details: for MIC: Cutibacterium acnes
Description: as §1, §2, §3, §4, §5
(§9) (1) at the interior of the inhibition zone there are stripped off strains, called P37 E⊖ by reason of their apparent resistance to erythromycin.
as §7, §8

[2] = tested on: staphilococcus epidermidis ATCC 12228; test: MIC by dilution method, staphilococcus epidermidis ATCC 12228; assay type: cell-based; details: Table I; for MIC: read-out: minimum inhibiting concentration (MIC), ATCC 12228
Description: as §1, §8

P37 [3] = test: IC 50 (50% survivors at constant culturing time), strain P37; assay type: cell-based, propionibacterium acnes; details: Cutibacterium acnes, read-out: IC 50 (inhibiting concentration at 50%), P37
Description: (§10) This phenomenon is confirmed by the study of the IC 50 (inhibiting concentration at 50%) which represents the concentration of erythromycin where, at a constant culturing time, 50% survivors among the population are found.

P37 E⊕ = test: IC 50 (50% survivors at constant culturing time), strain P37 E⊕; assay type: cell-based, propionibacterium acnes; details: Cutibacterium acnes, read-out: IC 50 (inhibiting concentration at 50%), P37 E⊕
Description: as §6, §10

P37 E⊖ = test: IC 50 (50% survivors at constant culturing time), strain P37 E⊖; assay type: cell-based, propionibacterium acnes; details: Cutibacterium acnes, read-out: IC 50 (inhibiting concentration at 50%), P37 E⊖
Description: as §9, §10

P37 [4] = test: Disc diffusion inhibition zone on gelose medium, sub-cultured strain P37; assay type: cell-based, propionibacterium acnes; details: Cutibacterium acnes, 144 h, read-out: inhibition zone of the growth of the strain, total diameter
Experimental: as §2, §3, §4

[5] = Table I, erythromycin-sensitive, read-out: minimum inhibiting concentration (MIC), P37 E⊕ (sensitive)
[6] = ACNESP37, Table I, P. acnes P37, read-out: minimum inhibiting concentration (MIC), P37
[7] = read-out: minimum inhibiting concentration (MIC), P37 E⊖ (resistant)

Row | Molecule | MIC (P37 E⊕ (sensitive); [5]) [µg/mL] | MIC [1, 6] [µg/mL] | MIC (P37 E⊖ (resistant); [7]) [µg/mL] | MIC [2] [µg/mL] | also measured
1 | CCCCCCCCCC(=O)O[C@H]1C(OCCCC)O[C@H](C)C[C@@H]1N(C)C (stereo partly drawn) [Compound 1, O-decanoyl-2-O-butyl-1-α,β-D-desosamine] | 9 (≈ 23.3 µM) | 9 (≈ 23.3 µM) | 3.2 (≈ 8.3 µM) | 5 (≈ 13 µM) | 
2 | CCCCCCCCCCCC(=O)O[C@H]1C(OCCCC)O[C@H](C)C[C@@H]1N(C)C (stereo partly drawn) [Compound 2, O-dodecanoyl-2-O-butyl-1-α,β-D-desosamine] | 0.6 (≈ 1.45 µM) | 0.4 (≈ 0.967 µM) | 0.9 (≈ 2.18 µM) | 3.5 (≈ 8.46 µM) | 
3 | CCCCCCCCCCCC(=O)O[C@H]1[C@H](OCCCC)O[C@H](C)C[C@@H]1N(C)C [Compound 3, O-dodecanoyl-2-O-butyl-1-β-D-desosamine] | 0.1 (≈ 0.242 µM) | 15 (≈ 36.3 µM) | 1.9 (≈ 4.59 µM) |  | 
4 | CCCCCCCCCCCC(=O)O[C@H]1C(OC)O[C@H](C)C[C@@H]1N(C)C (stereo partly drawn) [Compound 4, O-dodecanoyl-2-O-methyl-1-α,β-D-desosamine] | 15 (≈ 40.4 µM) | 25 (≈ 67.3 µM) |  | 3.8 (≈ 10.2 µM) | 
5 | CCCCCCCCCCCC(=O)O[C@H]1[C@@H](OC)O[C@H](C)C[C@@H]1N(C)C [Compound 5, O-dodecanoyl-2-O-methyl-1-α-D-desosamine] | 50 (≈ 135 µM) | 50 (≈ 135 µM) |  | 3.2 (≈ 8.61 µM) | 
6 | CCCCC/C=C\C/C=C\CCCCCCCC(=O)O[C@H]1C(OCCCC)O[C@H](C)C[C@@H]1N(C)C (stereo partly drawn) [Compound 6, O-linoleoyl-2-O-butyl-1-α,β-D-desosamine] | 0.7 (≈ 1.42 µM) | 0.4 (≈ 0.81 µM) | 0.8 (≈ 1.62 µM) | 0.2 (≈ 0.405 µM) | 
7 | CCCCC/C=C\C/C=C\CCCCCCCC(=O)O[C@H]1[C@@H](OCCCC)O[C@H](C)C[C@@H]1N(C)C [Compound 7, O-linoleoyl-2-O-butyl-1-α-D-desosamine] | 1.1 (≈ 2.23 µM) | 0.15 (≈ 0.304 µM) |  | 1.1 (≈ 2.23 µM) | 
8 | CCCCCCCCCCCCCCCCCCO[C@H]1C(OCCCC)O[C@H](C)C[C@@H]1N(C)C (stereo partly drawn) [Compound 8, O-octadecyl-2-O-butyl-1-α,β-D-desosamine] | < 0.03 | 0.25 (≈ 0.517 µM) | 8.8 (≈ 18.2 µM) | 2.2 (≈ 4.55 µM) | 
9 | CCCCCCCCCCCCCCCCCCO[C@H]1[C@@H](OCCCC)O[C@H](C)C[C@@H]1N(C)C [Compound 9, O-octadecyl-2-O-butyl-1-α-D-desosamine] |  | 0.1 (≈ 0.207 µM) | 27.5 (≈ 56.8 µM) | 0.8 (≈ 1.65 µM) | MIC (P37 E⊕ (sensitive); read-out: minimum inhibiting concentration (MIC), P37 E⊕ (sensitive)): 27.5 µg/mL (≈ 56.8 µM)
10 | CCCCCCCCCCCCCCCCCCO[C@H]1[C@H](OCCCC)O[C@H](C)C[C@@H]1N(C)C [Compound 10] | 0.09 (≈ 0.186 µM) | 3.12 (≈ 6.45 µM) | 1.56 (≈ 3.22 µM) | 0.04 (≈ 0.0827 µM) | 
11 | CCCCCCCCCCCO[C@H]1C(OCCCCCCCCCC)O[C@H](C)C[C@@H]1N(C)C (some centres unmarked) [Compound 11] | 0.7 (≈ 1.49 µM) | 4 (≈ 8.51 µM) | 0.8 (≈ 1.7 µM) | 0.7 (≈ 1.49 µM) | 
12 | CCCCCCCCCCCO[C@H]1[C@@H](OCCCCCCCCCC)O[C@H](C)C[C@@H]1N(C)C [Compound 12] | 1 (≈ 2.13 µM) | 1.8 (≈ 3.83 µM) | 0.8 (≈ 1.7 µM) | 0.8 (≈ 1.7 µM) | 
13 | CCCCCCCCCCCO[C@H]1[C@H](OCCCCCCCCCC)O[C@H](C)C[C@@H]1N(C)C [Compound 13] | 0.5 (≈ 1.06 µM) | 1 (≈ 2.13 µM) | 0.02 (≈ 0.0426 µM) | 0.06 (≈ 0.128 µM) | 
14 | CCCCCCCCOC1O[C@H](C)C[C@H](N(C)C)[C@H]1OCCCCCCCC (stereo partly drawn) [Compound 14, di-O-octyl-1,2-α,β-D-desosamine] | 0.6 (≈ 1.5 µM) | 0.5 (≈ 1.25 µM) | 0.1 (≈ 0.25 µM) | 0.5 (≈ 1.25 µM) | 
15 | CCCCCCCCO[C@H]1O[C@H](C)C[C@H](N(C)C)[C@H]1OCCCCCCCC [Compound 15, di-O-octyl-1,2-α-D-desosamine] | 1 (≈ 2.5 µM) | 1.8 (≈ 4.5 µM) | 0.4 (≈ 1 µM) | 0.3 (≈ 0.751 µM) | 
16 | CCCCCCCCO[C@@H]1O[C@H](C)C[C@H](N(C)C)[C@H]1OCCCCCCCC [Compound 16, di-O-octyl-1,2-β-D-desosamine] | 0.3 (≈ 0.751 µM) | 0.7 (≈ 1.75 µM) | 0.15 (≈ 0.375 µM) | 1.2 (≈ 3 µM) | 
17 | CCCCCCCCCCCCC(CCCCCCCCCC)CO[C@H]1C(OCCCC)O[C@H](C)C[C@@H]1N(C)C (stereo partly drawn) [Compound 17, O-(2-decyl)-tetradecyl-2-O-butyl-1-α,β-D-desosamine] | 11 (≈ 19.4 µM) | 12.5 (≈ 22 µM) | 6 (≈ 10.6 µM) |  | 
18 | CC[C@H]1OC(=O)[C@H](C)[C@@H](O[C@H]2C[C@@](C)(OC)[C@@H](O)[C@H](C)O2)[C@H](C)[C@@H](O[C@@H]2O[C@H](C)C[C@H](N(C)C)[C@H]2O)[C@](C)(O)C[C@@H](C)C(=O)[C@H](C)[C@@H](O)[C@]1(C)O [erythromycin] |  |  |  |  | MIC (P37 E⊕ (sensitive); read-out: MIC, P37 E⊕): 0.78 µg/mL (≈ 1.06 µM); IC50 (P37 [3]): 50 µg/mL (≈ 68.1 µM); IC50 (P37 E⊕): 5 µg/mL (≈ 6.81 µM); MIC ([1]; ACNESP37, read-out: minimum inhibiting concentration (MIC), P37): 0.78 µg/mL (≈ 1.06 µM); MIC (P37 E⊖ (resistant); read-out: MIC, P37 E⊖): 50 µg/mL (≈ 68.1 µM); IC50 (P37 E⊖): 100 µg/mL (≈ 136 µM); zone of inhibition at 50 µg/disc (P37 [4]): 42 mm
19 | O-dodecanoyl-2'-erythralosamine [Compound 18] |  |  |  |  | minimum inhibiting concentration (MIC), P37 E⊕ (sensitive) (P37 E⊕ (sensitive); Table I, erythromycin-sensitive): 12.5 µg/mL; minimum inhibiting concentration (MIC), P37 ([1]; Table I, P. acnes P37): 0.4 µg/mL; minimum inhibiting concentration (MIC), P37 E⊖ (resistant) (P37 E⊖ (resistant); Table I, erythromycin-resistant): 0.4 µg/mL; minimum inhibiting concentration (MIC), ATCC 12228 [2]: 1.5 µg/mL
